# Assays:
# Format in all cases: in vivo
# soybean plant (So) = experiment: Test Example 3: phytotoxicity to upland crop plants, treatment before emergence; conditions: dosage 5 kg/ha
# Procedure: (§1) Herbicidal Effect on Upland Weeds Before Emergence […] Then, a liquid preparation of an agent comprising a prescribed concentration of a compound of the present invention (the compounds listed in Tables 1-14) as active ingredient was sprayed. Fourteen days after the treatment, the herbicidal effect was investigated, from which weed-killing rate was calculated in the same manner as in Test Example 1, and the herbicidal effect was judged. At the same time, phytotoxicity to soybean plant and wheat was investigated and judged according to the criterion mentioned below.
# wheat (Wh) = experiment: as above; conditions: dosage 5 kg/ha
# Procedure: as §1
# wheat = experiment: Test Example 4: phytotoxicity to upland crop plants, treatment after emergence; conditions: dosage 5 kg/ha, sprayed after emergence, judged 14 days after treatment
# Excerpt: (§2) Herbicidal Effect on Upland Weeds After Emergence Polyethylene-made vats having a size of 10 cm (length)×20 cm (width)×5 cm (height) were filled with soil, sown with seeds of the following noxious upland weeds and with seeds of soybean plant and wheat as upland crop plants, and then covered with soil. The plants were made to grow up until they reached the leaf-stages mentioned below, after which an agent comprising a prescribed concentration of a compound of the present invention (listed in Tables 1 to 14) as active ingredient was sprayed. Fourteen days after the treatment, the herbicidal effect was investigated, from which weed-killing rate was calculated in the same manner as in Test Example 1 and the results were judged. […] Sample weeds, their leaf stages, and leaf stages of soybean plant and wheat were as follows: [table]
# soybean plant = experiment: as above; conditions: dosage 5 kg/ha, sprayed after emergence, judged 14 days after treatment
# Excerpt: as §2
# [1] = system: forxtail grass (Alopecurus aequalis var. amurensis Ohwi), Am; experiment: Test Example 4: herbicidal effect on upland weeds after emergence; conditions: dosage 5 kg/ha; sprayed after emergence; judged 14 days after treatment
# Excerpt: as §2
# [2] = system: bird's eye speedwell (Veronica persica Poir.), Vp; experiment: as above; conditions: dosage 5 kg/ha; sprayed after emergence; judged 14 days after treatment
# Excerpt: as §2
# [3] = system: velvetleaf (Abutilon theophtasti L.), At; experiment: as above; conditions: dosage 5 kg/ha; sprayed after emergence; judged 14 days after treatment
# Excerpt: as §2
# [4] = system: barnyard grass (Echinochloa crus-galli Beauv.), Ec; experiment: as above; conditions: dosage 5 kg/ha; sprayed after emergence; judged 14 days after treatment
# Excerpt: as §2
# [5] = system: cleavers (Galium aparine L.), Ga; experiment: as above; conditions: dosage 5 kg/ha; sprayed after emergence; judged 14 days after treatment
# Excerpt: as §2
# [6] = system: cocklebur (Xanthium strumarium L.), Xs; experiment: as above; conditions: dosage 5 kg/ha; sprayed after emergence; judged 14 days after treatment
# Excerpt: as §2
# [7] = system: forxtail grass (Alopecurus aequalis var. amurensis Ohwi), Am; experiment: Test Example 3: herbicidal effect on upland weeds before emergence; conditions: foxtail grass, dosage 5 kg/ha
# Procedure: as §1, with “judged.” for “judged. At the same time, phytotoxicity to soybean plant and wheat was investigated and judged according to the criterion mentioned below.”
# [8] = system: bird's eye speedwell (Veronica persica Poir.), Vp; experiment: as above; conditions: dosage 5 kg/ha
# Procedure: as §1, with “judged.” for “judged. At the same time, phytotoxicity to soybean plant and wheat was investigated and judged according to the criterion mentioned below.”
# [9] = system: velvetleaf (Abutilon theophtasti L.), At; experiment: as above; conditions: dosage 5 kg/ha
# Procedure: as §1, with “judged.” for “judged. At the same time, phytotoxicity to soybean plant and wheat was investigated and judged according to the criterion mentioned below.”
# [10] = system: barnyard grass (Echinochloa crus-galli Beauv.), Ec; experiment: as above; conditions: dosage 5 kg/ha
# Procedure: as §1, with “judged.” for “judged. At the same time, phytotoxicity to soybean plant and wheat was investigated and judged according to the criterion mentioned below.”
# [11] = system: cleavers (Galium aparine L.), Ga; experiment: as above; conditions: dosage 5 kg/ha
# Procedure: as §1, with “judged.” for “judged. At the same time, phytotoxicity to soybean plant and wheat was investigated and judged according to the criterion mentioned below.”
# [12] = system: cocklebur (Xanthium strumarium L.), Xs; experiment: as above; conditions: dosage 5 kg/ha
# Procedure: as §1, with “judged.” for “judged. At the same time, phytotoxicity to soybean plant and wheat was investigated and judged according to the criterion mentioned below.”
# [13] = system: barnyard grass (Echinochloa crus-galli Beauv.); experiment: Test Example 1: herbicidal effect on paddy field weeds before emergence; conditions: Dosage 5 kg/ha
# Procedure: (§3) Test for Herbicidal Effect on Paddy Field Weeds Before Emergence Soil was filled into 1/10000 are pots and brought into a state of paddy field, in which seeds of barnyard grass (Echinochloa crus-galli Beauv.) and bulrush (Scirpus juncoides Roxb.) were made to be before germination. The soil in the pots were treated with a solution containing a predetermined dosage of a chemical agent comprising a compound of the present invention listed in Tables 1 to 14. Twenty one days after the treatment, the herbicidal effect was investigated, the result was compared with that in untreated plot to calculate the weed-controlling rate, and the herbicidal effect was judged according to the following criterion: […]
# [14] = system: bulrush (Scirpus juncoides Roxb.); experiment: as above; conditions: Dosage 5 kg/ha
# Procedure: as §3
# [15] = system: barnyard grass (Echinochloa crus-galli Beauv.); experiment: Test Example 2: herbicidal effect on paddy field weeds after emergence; conditions: Dosage 5 kg/ha; one-leaved stage; 21 days after treatment
# Procedure: (§4) Test for Herbicidal Effect on Paddy Field Weeds After Emergence. Soil was filled into 1/10000 are pots and brought into a state of paddy field, in which seeds of barnyard grass (Echinochloa crus-galli Beauv.), bulrush (Scirpus juncoides Roxb.) and monochoria (Monochoria vaginalis Presl) were made to reach one-leaved stage. The soil in the pots were treated with a solution containing a predetermined dosage of a chemical agent comprising a compound of the present invention listed in Tables 1 to 14. Twenty one days after the treatment, the herbicidal effect was investigated and the result was compared with that in untreated plot to calculate the weed-controlling rate, and the herbicidal effect was judged according to the same criterion as in Test Example 1.
# [16] = system: bulrush (Scirpus juncoides Roxb.); experiment: as above; conditions: Dosage 5 kg/ha; one-leaved stage; 21 days after treatment
# Procedure: as §4
# [17] = system: monochoria (Monochoria vaginalis Presl); experiment: as above; conditions: Dosage 5 kg/ha; one-leaved stage; 21 days after treatment
# Procedure: as §4
smiles,measurement,setting,value
CCc1ccc(Cl)c(CC)c1NC(=O)c1cc2ccccc2nc1C(=O)NC [359-1],Phytotoxicity So,soybean plant (So),0 (Crop-killing rate is 0-20% (No Phytotoxicity).)
same,Phytotoxicity Wh,wheat (Wh),0 (Crop-killing rate is 0-20% (No Phytotoxicity).)
same,Phytotoxicity Wh,wheat,2 (Crop-killing rate is 40-69%.)
same,Phytotoxicity So,soybean plant,3 (Crop-killing rate is 70-89%.)
same,Herbicidal effect Am,[1],5 (Weed-killing rate is 100%.)
same,Herbicidal effect Vp,[2],5 (Weed-killing rate is 100%.)
same,Herbicidal effect At,[3],5 (Weed-killing rate is 100%.)
same,Herbicidal effect Ec,[4],5 (Weed-killing rate is 100%.)
same,Herbicidal effect Ga,[5],5 (Weed-killing rate is 100%.)
same,Herbicidal effect Xs,[6],5 (Weed-killing rate is 100%.)
same,Herbicidal effect Am,[7],5 (Weed-killing rate is 100%.)
same,Herbicidal effect Vp,[8],5 (Weed-killing rate is 100%.)
same,Herbicidal effect At,[9],5 (Weed-killing rate is 100%.)
same,Herbicidal effect Ec,[10],5 (Weed-killing rate is 100%.)
same,Herbicidal effect Ga,[11],5 (Weed-killing rate is 100%.)
same,Herbicidal effect Xs,[12],5 (Weed-killing rate is 100%.)
same,Pre-emergence treatment Barnyard grass (herbicidal effect),[13],5 (Weed-killing rate is 100%.)
same,Pre-emergence treatment Bulrush (herbicidal effect),[14],5 (Weed-killing rate is 100%.)
same,Post-emergence treatment Barnyard grass (herbicidal effect),[15],5 (Weed-killing rate is 100%.)
same,Post-emergence treatment Bulrush (herbicidal effect),[16],5 (Weed-killing rate is 100%.)
same,Post-emergence treatment Monochoria (herbicidal effect),[17],5 (Weed-killing rate is 100%.)
CCNC(=O)c1nc2ccccc2cc1C(=O)Nc1c(CC)ccc(Cl)c1CC [359-2],Phytotoxicity So,soybean plant (So),1 (Crop-killing rate is 1-39%.)
same,Phytotoxicity Wh,wheat (Wh),0 (Crop-killing rate is 0-20% (No Phytotoxicity).)
same,Phytotoxicity Wh,wheat,3 (Crop-killing rate is 70-89%.)
same,Phytotoxicity So,soybean plant,4 (Crop-killing rate is 90-99%.)
same,Herbicidal effect Am,[1],5 (Weed-killing rate is 100%.)
same,Herbicidal effect Vp,[2],5 (Weed-killing rate is 100%.)
same,Herbicidal effect At,[3],5 (Weed-killing rate is 100%.)
same,Herbicidal effect Ec,[4],5 (Weed-killing rate is 100%.)
same,Herbicidal effect Ga,[5],5 (Weed-killing rate is 100%.)
same,Herbicidal effect Xs,[6],5 (Weed-killing rate is 100%.)
same,Herbicidal effect Am,[7],5 (Weed-killing rate is 100%.)
same,Herbicidal effect Vp,[8],5 (Weed-killing rate is 100%.)
same,Herbicidal effect At,[9],5 (Weed-killing rate is 100%.)
same,Herbicidal effect Ec,[10],5 (Weed-killing rate is 100%.)
same,Herbicidal effect Ga,[11],5 (Weed-killing rate is 100%.)
same,Herbicidal effect Xs,[12],5 (Weed-killing rate is 100%.)
same,Pre-emergence treatment Barnyard grass (herbicidal effect),[13],5 (Weed-killing rate is 100%.)
same,Pre-emergence treatment Bulrush (herbicidal effect),[14],5 (Weed-killing rate is 100%.)
same,Post-emergence treatment Barnyard grass (herbicidal effect),[15],5 (Weed-killing rate is 100%.)
same,Post-emergence treatment Bulrush (herbicidal effect),[16],5 (Weed-killing rate is 100%.)
same,Post-emergence treatment Monochoria (herbicidal effect),[17],5 (Weed-killing rate is 100%.)
CCCNC(=O)c1nc2ccccc2cc1C(=O)Nc1c(CC)ccc(Cl)c1CC [359-3],Phytotoxicity So,soybean plant (So),0 (Crop-killing rate is 0-20% (No Phytotoxicity).)
same,Phytotoxicity Wh,wheat (Wh),0 (Crop-killing rate is 0-20% (No Phytotoxicity).)
same,Phytotoxicity Wh,wheat,2 (Crop-killing rate is 40-69%.)
same,Phytotoxicity So,soybean plant,3 (Crop-killing rate is 70-89%.)
same,Herbicidal effect Am,[1],5 (Weed-killing rate is 100%.)
same,Herbicidal effect Vp,[2],5 (Weed-killing rate is 100%.)
same,Herbicidal effect At,[3],5 (Weed-killing rate is 100%.)
same,Herbicidal effect Ec,[4],5 (Weed-killing rate is 100%.)
same,Herbicidal effect Ga,[5],5 (Weed-killing rate is 100%.)
same,Herbicidal effect Xs,[6],5 (Weed-killing rate is 100%.)
same,Herbicidal effect Am,[7],5 (Weed-killing rate is 100%.)
same,Herbicidal effect Vp,[8],5 (Weed-killing rate is 100%.)
same,Herbicidal effect At,[9],5 (Weed-killing rate is 100%.)
same,Herbicidal effect Ec,[10],5 (Weed-killing rate is 100%.)
same,Herbicidal effect Ga,[11],5 (Weed-killing rate is 100%.)
same,Herbicidal effect Xs,[12],5 (Weed-killing rate is 100%.)
same,Pre-emergence treatment Barnyard grass (herbicidal effect),[13],5 (Weed-killing rate is 100%.)
same,Pre-emergence treatment Bulrush (herbicidal effect),[14],5 (Weed-killing rate is 100%.)
same,Post-emergence treatment Barnyard grass (herbicidal effect),[15],5 (Weed-killing rate is 100%.)
same,Post-emergence treatment Bulrush (herbicidal effect),[16],5 (Weed-killing rate is 100%.)
same,Post-emergence treatment Monochoria (herbicidal effect),[17],5 (Weed-killing rate is 100%.)
CCc1ccc(Cl)c(CC)c1NC(=O)c1cc2ccccc2nc1C(=O)NC(C)(C)C [359-4],Phytotoxicity So,soybean plant (So),2 (Crop-killing rate is 40-69%.)
same,Phytotoxicity Wh,wheat (Wh),0 (Crop-killing rate is 0-20% (No Phytotoxicity).)
same,Phytotoxicity Wh,wheat,2 (Crop-killing rate is 40-69%.)
same,Phytotoxicity So,soybean plant,4 (Crop-killing rate is 90-99%.)
same,Herbicidal effect Am,[1],5 (Weed-killing rate is 100%.)
same,Herbicidal effect Vp,[2],5 (Weed-killing rate is 100%.)
same,Herbicidal effect At,[3],5 (Weed-killing rate is 100%.)
same,Herbicidal effect Ec,[4],5 (Weed-killing rate is 100%.)
same,Herbicidal effect Ga,[5],5 (Weed-killing rate is 100%.)
same,Herbicidal effect Xs,[6],5 (Weed-killing rate is 100%.)
same,Herbicidal effect Am,[7],5 (Weed-killing rate is 100%.)
same,Herbicidal effect Vp,[8],5 (Weed-killing rate is 100%.)
same,Herbicidal effect At,[9],5 (Weed-killing rate is 100%.)
same,Herbicidal effect Ec,[10],5 (Weed-killing rate is 100%.)
same,Herbicidal effect Ga,[11],5 (Weed-killing rate is 100%.)
same,Herbicidal effect Xs,[12],5 (Weed-killing rate is 100%.)
same,Pre-emergence treatment Barnyard grass (herbicidal effect),[13],5 (Weed-killing rate is 100%.)
same,Pre-emergence treatment Bulrush (herbicidal effect),[14],5 (Weed-killing rate is 100%.)
same,Post-emergence treatment Barnyard grass (herbicidal effect),[15],5 (Weed-killing rate is 100%.)
same,Post-emergence treatment Bulrush (herbicidal effect),[16],5 (Weed-killing rate is 100%.)
same,Post-emergence treatment Monochoria (herbicidal effect),[17],5 (Weed-killing rate is 100%.)
CCc1ccc(Cl)c(CC)c1NC(=O)c1cc2ccccc2nc1C(=O)NCC(C)(C)C [359-5],Phytotoxicity So,soybean plant (So),0 (Crop-killing rate is 0-20% (No Phytotoxicity).)
same,Phytotoxicity Wh,wheat (Wh),0 (Crop-killing rate is 0-20% (No Phytotoxicity).)
same,Phytotoxicity Wh,wheat,3 (Crop-killing rate is 70-89%.)
same,Phytotoxicity So,soybean plant,2 (Crop-killing rate is 40-69%.)
same,Herbicidal effect Am,[1],5 (Weed-killing rate is 100%.)
same,Herbicidal effect Vp,[2],5 (Weed-killing rate is 100%.)
same,Herbicidal effect At,[3],5 (Weed-killing rate is 100%.)
same,Herbicidal effect Ec,[4],5 (Weed-killing rate is 100%.)
same,Herbicidal effect Ga,[5],5 (Weed-killing rate is 100%.)
same,Herbicidal effect Xs,[6],5 (Weed-killing rate is 100%.)
same,Herbicidal effect Am,[7],5 (Weed-killing rate is 100%.)
same,Herbicidal effect Vp,[8],5 (Weed-killing rate is 100%.)
same,Herbicidal effect At,[9],5 (Weed-killing rate is 100%.)
same,Herbicidal effect Ec,[10],5 (Weed-killing rate is 100%.)
same,Herbicidal effect Ga,[11],5 (Weed-killing rate is 100%.)
same,Herbicidal effect Xs,[12],5 (Weed-killing rate is 100%.)
same,Pre-emergence treatment Barnyard grass (herbicidal effect),[13],5 (Weed-killing rate is 100%.)
same,Pre-emergence treatment Bulrush (herbicidal effect),[14],5 (Weed-killing rate is 100%.)
same,Post-emergence treatment Barnyard grass (herbicidal effect),[15],5 (Weed-killing rate is 100%.)
same,Post-emergence treatment Bulrush (herbicidal effect),[16],5 (Weed-killing rate is 100%.)
same,Post-emergence treatment Monochoria (herbicidal effect),[17],5 (Weed-killing rate is 100%.)
